According to the CheMixHub ionic liquid set:

Assay: xn = mol fraction of the nth substance listed
Conditions: for electrical conductivity: 101 kPa; for viscosity: 100 kPa, x2 = 0

CCCC[N+](CCCC)(CCCC)Cc1ccccc1.[Cl-] + O=C(O)[C@@H]1CCCN1 + O
electrical conductivity [S/m]
Conditions | 298.15 K | 303.15 K | 308.15 K
x2 = 1.802e-05, x1 = 1.802e-05 | 0.0132 | 0.0149 | 0.0164
x2 = 1.804e-05, x1 = 5.406e-05 | 0.0279 | 0.0297 | 0.0314
x2 = 1.805e-05, x1 = 9.009e-05 | 0.0321 | 0.0338 | 0.0353
x2 = 4.506e-05, x1 = 1.802e-05 | 0.0156 | 0.0164 | 0.0176
x2 = 4.509e-05, x1 = 5.405e-05 | 0.0298 | 0.0313 | 0.0329
x2 = 4.511e-05, x1 = 9.009e-05 | 0.0339 | 0.0356 | 0.0372
x2 = 7.21e-05, x1 = 1.802e-05 | 0.0169 | 0.0183 | 0.0197
x2 = 7.214e-05, x1 = 5.405e-05 | 0.0314 | 0.0327 | 0.0341
x2 = 7.218e-05, x1 = 9.009e-05 | 0.0353 | 0.0367 | 0.0387
x2 = 9.913e-05, x1 = 1.802e-05 | 0.0184 | 0.0206 | 0.0213
x2 = 9.919e-05, x1 = 5.405e-05 | 0.0329 | 0.0335 | 0.0354
x2 = 9.925e-05, x1 = 9.008e-05 | 0.0368 | 0.0383 | 0.0409
x2 = 0.0001262, x1 = 1.802e-05 | 0.0209 | 0.0219 | 0.0229
x2 = 0.0001262, x1 = 5.405e-05 | 0.0337 | 0.0349 | 0.0366
x2 = 0.0001263, x1 = 9.008e-05 | 0.0384 | 0.0398 | 0.0423
x2 = 0.0001532, x1 = 1.802e-05 | 0.0223 | 0.0239 | 0.0251
x2 = 0.0001533, x1 = 5.405e-05 | 0.0345 | 0.0358 | 0.0381
x2 = 0.0001534, x1 = 9.008e-05 | 0.0395 | 0.0416 | 0.0445

CCO + CC[n+]1ccn(C)c1.COP(=O)([O-])OC
Conditions | viscosity [mPa·s]
298.15 K | 1.08
328.15 K | 0.646
